Drawing on PubChem BioAssay (NCI), this text covers GI50 and TGI for eleven compounds.

What all share (test): NCI-60 cell line screen, 48 h
Test [1] deals with K-562 leukemia.
Test [2] concerns HOP-92 NSCLC.
In test [3] the test system is PC-3 prostate.
The test system of test [4] is KM12 colon.
Test [5] deals with MCF7 breast.
Test [6] concerns UACC-257 melanoma.
Test [7] has as its system SK-OV-3 ovarian.
The test system of test [8] is HCT-15 colon.
The test system of test [9] is HCT-116 colon.
The subject of test [10] is MDA-MB-231 breast.

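Exposure lasted 48 hours, with cells grown in 96-well plates and compounds tested at five concentrations. GI50 marks 50% less growth. The concentration for full growth arrest is given as TGI.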 Where only a bound is given, the exact number is not on record here.

Consider `N#Cc1ccc(-n2cnc(NC(=O)[C@H]3CCN(C#N)C3)c2)cc1`, for which the GI50 was 2.67 µM in [1]; 1.92 µM in test [2]; 2.39 µM in test [3]; 1.58 µM in test [4]; under 0.0378 µM in [5]; 1.94 µM in test [6]. In addition, the GI50 in test [7] was 3.77 µM; in test [8] it was 2.2 µM; in [9], 1.1 µM; in [10] it was 1.91 µM. In addition, the TGI is over 100 µM in test [1]; 6.98 µM in test [2]; 20.2 µM in test [3]; 11.8 µM in [4]; over 100 µM in test [5]; 10.1 µM in test [6]. The TGI in [7] was over 51.4 µM; in test [8], over 100 µM; in test [9], 9.27 µM; in test [10] it was over 91.6 µM.

`Cc1cc(N2CCN(C)CC2)nc(NC2CCCC(Nc3ccnc4cc(Cl)ccc34)C2)n1` (stereo not given): the GI50 in test [1] is 0.451 µM; in [2] it was 1.67 µM; in test [3] it was 3.35 µM; in test [4], 2.89 µM; in test [5] it was 1.39 µM; in test [6], 2.1 µM. For the same compound, the GI50 in test [7] was 3.35 µM; in test [8] it was 0.973 µM; in test [9], 1.46 µM; in [10] it was 1.78 µM. For the same compound, the TGI in test [1] came to 3.92 µM; in test [2], 3.49 µM; in [3], 11.4 µM; in [4], 10.1 µM; in test [5] it was 4.45 µM; in test [6], 3.93 µM. Further, the TGI in [7] was 11.5 µM; in [8], 3.1 µM; in test [9], 3.74 µM; in [10], 4.25 µM.

In the case of `COC(=O)c1c2c(c(C)[n+]([O-])c1C)C(=O)C(NCc1ccc(F)c(Cl)c1)=CC2=O`, the GI50 was 2.67 µM in [1]; 2.52 µM in [2]; 2.27 µM in [3]; 1.96 µM in [4]; 1.32 µM in test [5]; 1.28 µM in test [6]. The GI50 in test [7] was 3.57 µM; in [8], 1.39 µM; in test [9], 2.34 µM; in test [10], 1.76 µM. For the same compound, the TGI was over 100 µM in [1]; 5.79 µM in test [2]; 12.9 µM in [3]; 9.63 µM in test [4]; 3.23 µM in test [5]; 3.1 µM in [6]. For the same compound, the TGI in test [7] is 13.6 µM; in test [8] it was 3.58 µM; in test [9], 10.2 µM; in test [10], 5.6 µM.

Turning to `O=C1/C(=C\c2ccccc2)c2ccccc2N1Cc1ccccc1`, the TGI in [1] is over 31.3 µM; in test [2], 13.8 µM; in test [3], 15.9 µM; in test [4], 13.9 µM; in [5], 12.3 µM; in test [6] it was 17.6 µM. In addition, the TGI in test [7] came to 15.8 µM; in test [8], 14.5 µM; in [9] it was 12.4 µM; in [10], 13.3 µM.

Regarding `C[C@]12CC[C@@H]3c4ccc(O)cc4CC[C@H]3[C@@H]1CC[C@@H]2NS(=O)(=O)c1cccc(Br)c1`, the GI50 was 3.59 µM in test [1]; 1.85 µM in test [2]; 2.83 µM in test [3]; 2.31 µM in test [4]; 3.74 µM in test [5]; 5.1 µM in test [6]. Also, the GI50 in test [7] is 6.8 µM; in [8], 2.77 µM; in [9] it was 3.03 µM; in [10], 3.88 µM. Also, the TGI in test [1] came to 14.8 µM; in test [2], 6.44 µM; in test [3], 12.2 µM; in test [4], 6.76 µM; in test [5], 10.9 µM; in test [6] it was 20 µM. The TGI in [7] was 18.6 µM; in test [8], 11.1 µM; in test [9], 10.2 µM; in test [10] it was 13.9 µM.

Regarding `O=C=Nc1ccc(Cc2ccc(N=C=O)cc2)cc1` (tested in a mixture with another compound), the GI50 is 12.3 µg/mL in test [1]; over 25 µg/mL in test [2]; over 25 µg/mL in test [3]; over 25 µg/mL in [4]; over 25 µg/mL in test [5]; over 25 µg/mL in [6]. The GI50 in test [7], in test [8], in [9] and in [10] was over 25 µg/mL in each case. For the same compound, the TGI in test [1], in [2], in test [3], in [4], in test [5] and in test [6] was over 25 µg/mL in each case. In addition, the TGI in test [7], in [8], in test [9] and in test [10] was over 25 µg/mL each time.

For `CCN(C)S(=O)(=O)Nc1cccc(Nc2ncnc3cc(NC(=O)CCl)ccc23)c1Cl`, the GI50 was 1.1 µM in test [1]; 3.4 µM in test [2]; 2.97 µM in test [3]; 4.39 µM in test [4]; 1.11 µM in test [5]; 3.59 µM in [6]. The GI50 is 5.58 µM in [7], 1.04 µM in test [8], 1.07 µM in [9] and 2.59 µM in test [10]. Further, the TGI in test [1] was over 25 µM; in test [2] it was 7.95 µM; in [3] it was 8.32 µM; in [4], 12.2 µM; in test [5], 8.33 µM; in test [6], 15.8 µM. The TGI in test [7] came out at 19.1 µM; in test [8], 5.52 µM; in test [9], 5.04 µM; in [10], 7.49 µM.

As to `CCOC(=O)c1c(C)c2c(n1C)CSc1cc(S(=O)(=O)c3ccccc3)c(=O)[nH]c1-2`, the GI50 in test [1] is 14.6 µM; in test [2], 1.11 µM; in test [3], 14 µM; in test [4] it was 28.8 µM; in test [5] it was 19.3 µM; in [6], 34.5 µM. Also, the GI50 is 28.9 µM in test [7], 25.8 µM in [8], 22.7 µM in [9] and 24.5 µM in test [10]. Further, the TGI is over 100 µM in test [1]; 28.5 µM in test [2]; over 100 µM in test [3]; over 100 µM in [4]; over 100 µM in test [5]; over 100 µM in test [6]. The TGI in test [7] was over 100 µM; in test [8], over 100 µM; in [9], 86.9 µM; in test [10], over 100 µM.

For the compound `COc1cc(/C=C2\C(=O)N(c3c(Cl)cccc3Cl)c3ccccc32)cc(OC)c1O`, the GI50 is 0.243 µM in test [1]; 1.97 µM in test [2]; 1.44 µM in test [3]; 0.654 µM in test [4]; 0.524 µM in test [5]; 2.19 µM in test [6]. In addition, the GI50 in [7] was 2.06 µM; in [8] it was 0.0682 µM; in test [9] it was 0.292 µM; in test [10], 2.56 µM. Further, the TGI was over 66.6 µM in test [1]; 11 µM in test [2]; 27.1 µM in [3]; 2.69 µM in test [4]; 9.26 µM in test [5]; 19.6 µM in test [6]. Besides, the TGI came out at 18.9 µM in test [7], 11.2 µM in [8], 4.83 µM in [9] and 31.5 µM in test [10].

With `O=S(=O)(Nc1ccc(Cl)c(C(F)(F)F)c1)c1ccc(-c2cnc(C3CC3)o2)cc1`, the GI50 in test [1] is 0.117 µM; in test [2], 1.04 µM; in test [3], 0.713 µM; in test [4], 0.187 µM; in [5], 0.132 µM; in test [6], 1.29 µM. Besides, the GI50 in [7] is 0.919 µM; in test [8], 0.156 µM; in test [9] it was 0.187 µM; in test [10], 1.23 µM. Further, the TGI was over 100 µM in [1]; 4.16 µM in test [2]; 6.59 µM in test [3]; 7.36 µM in [4]; 5.23 µM in [5]; 7.93 µM in [6]. For the same compound, the TGI in test [7] came to 5.18 µM; in test [8], 5.57 µM; in [9], 4.14 µM; in [10], 3.64 µM.

Consider `COc1ccc2[nH]cc(/C=C3\C(=O)Nc4ccccc43)c2c1`, for which the GI50 in test [1] was 2.28 µM; in [2] it was 3.84 µM; in test [3], 5.89 µM; in test [4], 0.246 µM; in test [5], 2.45 µM; in [6], 14.3 µM. Further, the GI50 is 4.75 µM in test [7], 3.86 µM in test [8], 3.41 µM in [9] and 3.95 µM in test [10]. The TGI amounted to 9.83 µM in test [1]; 13.6 µM in [2]; 25.8 µM in test [3]; 13 µM in [4]; 10.5 µM in test [5]; 73.1 µM in test [6]. Also, the TGI in test [7] is 21.5 µM; in [8], 17.5 µM; in test [9] it was 14.5 µM; in test [10], 21.9 µM.
